The source of these data is patent US20260345640A1 (priority 2025, published 2026).

Assay [1] has as its system E. coli DH5αZ1 expressing TetX7. The assay is described as follows: Minimum inhibitory concentration, TetX7-expressing strain. The assay is classed as cell-based. To be noted: Escherichia coli, 20 h. Here is the method: (§1) The panels were stored at −80 °C before use. Single colonies of E. coli DH5αZ1 containing TetX7, Tet50, or empty vector in pZE24 expression system were grown in MH-II broth with KAN50 and growth for overnight at 37 °C. On the day of the experiment, MIC panels were thawed at room temperature. […] The panels were incubated at 37 °C for 20 h, then scored by visual inspection. […] Each test was performed in triplicate, with no-antibiotic and no-cell control wells.
(§2) Minimum inhibitory concentrations (MICs) were determined using the broth microdilution method according to CLSI guidelines. Visual inspection of bacterial growth and measurement of the OD600 were used to determine the lowest concentration at which bacterial growth was inhibited.

In assay [2] the test system is E. coli DH5αZ1 expressing Tet50. The assay is described as follows: Minimum inhibitory concentration, Tet50-expressing strain. It counts as cell-based. To be noted: 20 h; for MIC: Escherichia coli; for MIC, Tet50, +TC: presence of 8 μg/mL TC, 37 °C. Here is the method: as §1, §2
The next assay deals with T1, Tet50 (Unknown prokaryotic organism, UniProt A0A059WYP6).
T1 construct: made in house; host or cells: E. coli BL21-Star (DE3)
T1 sequence (A0A059WYP6 whole entry): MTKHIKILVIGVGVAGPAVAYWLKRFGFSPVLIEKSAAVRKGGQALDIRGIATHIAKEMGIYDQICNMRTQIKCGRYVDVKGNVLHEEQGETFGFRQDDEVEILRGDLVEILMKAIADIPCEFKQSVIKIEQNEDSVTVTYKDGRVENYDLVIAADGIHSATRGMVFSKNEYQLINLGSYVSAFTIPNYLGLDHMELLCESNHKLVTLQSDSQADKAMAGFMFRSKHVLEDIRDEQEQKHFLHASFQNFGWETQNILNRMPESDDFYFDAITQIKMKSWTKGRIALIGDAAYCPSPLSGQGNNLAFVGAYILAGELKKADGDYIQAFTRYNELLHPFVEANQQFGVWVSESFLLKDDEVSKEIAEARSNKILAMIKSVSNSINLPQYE
Kind of assay: In vitro inhibition of TC oxidation by Tet50 (A400), variable preincubation, dark or blue light. It counts as biochemical. To be noted: role: inhibitor, 100 μM TC, 500 μM NADPH. Here is the method:
PHBH activity was determined similarly using para-hydroxybenzoic acids as substrate and monitoring for NADPH consumption via A340. […] Reaction samples were prepared in a Costar 96-well flat bottom clear, polystyrene plate and incubated under dark or a 700 lm blue LED bulb held at a distance of 20 cm for various durations. Incubation times were 0, 30, 60, 120, and 240 min under dark or 0, 1, 2, 4, and 8 min under blue light. […] Initial enzyme velocities were determined by linear regression over the linear range of the reaction (typically between 0 and 1 min). […] The velocities were plotted against the logarithm of inhibitor concentration, and apparent IC50 plots were analyzed using GraphPad prism 10 software. […] All apparent IC50 values were plotted against the duration of incubation time and fitted to an exponential decay function. All data points were shown as means and error bars represented standard deviation at least two independent experiments.
TetX7 and TetX6 as model Type 1 enzymes and Tet50 as a model Type 2 enzyme were used.
A hallmark of covalent enzyme inhibition was time dependence given that longer exposure of the enzyme to the inhibitor allowed for more inactivating turnovers. […] The apparent IC50 values were determined for each preincubation time point by monitoring the TDase velocity at A400 under various inhibitor concentrations. The apparent IC50 values were plotted against the preincubation times to determine if the TDase inhibition was time-dependent (FIG. 6).

[3] abbreviates: dark, 30 min preincubation of inhibitor with enzyme prior to initiating assay, read-out: Apparent IC50 values, Tet50.
Setting [4] is: read-out: Apparent IC50 value over 7 min blue light, blue light, 7 min.

Molecules are shown by their SMILES. ≈ marks a conversion by molar mass, not a printed value. Where a name gives a salt, the structure may show the parent alone. Read-outs that look alike come from different tables or passages of the source.

As usually defined, the MIC is the smallest concentration in the dilution series that meets the test's criterion for growth inhibition. In the case of `CN(C)[C@@H]1C(O)=C(C(N)=O)C(=O)[C@@]2(O)C(O)=C3C(=O)c4c(O)cccc4[C@@](C)(O)[C@H]3C[C@@H]12` [TC, tetracycline, reference compound], the MIC in assay [1] (read-out: MIC of TC against TetX7::pZE24) and in assay [2] (read-out: MIC of TC against Tet50::pZE24) was 16 µg/mL in each case.
What is called IC50 is the concentration needed to halve the response being measured. In the case of `C#CCNCc1ccc2c(C)c3c(c(O)c2c1O)C(=O)[C@]1(O)C(=O)C(C(N)=O)=C(O)[C@@H](N(C)C)[C@@H]1C3.Cl` [Compound 104, (4S,4aS,12aS)-4-(Dimethylamino)-3,10,11,12a-tetrahydroxy-6-methyl-1,12-dioxo-9-((prop-2-yn-1-ylamino)-methyl)-1,4,4a,5,12,12a-hexahydrotetracene-2-carboxamide Hydrochloride], the IC50 at Tet50 (setting [3]) was determined as 600 ± 40 µM. Also, the “MIC, Tet50, +TC” value in assay [2] stood at 8 µg/mL.
As for `C#CCN(C)Cc1ccc2c(C)c3c(c(O)c2c1O)C(=O)[C@]1(O)C(=O)C(C(N)=O)=C(O)[C@@H](N(C)C)[C@@H]1C3` [Compound 105], the figures for the IC50 at Tet50 (setting [4]) and on Tet50 (setting [3]) were 107 ± 6 µM and 470 ± 60 µM, respectively. In assay [2] (read-out: MIC, Tet50, −TC), the MIC was 32 µg/mL (≈ 63 µM). Also, the “MIC, Tet50, +TC” value in assay [2] was found to be 16 µg/mL.
As to `Cc1c2c(c(O)c3c(O)c(CNC4(C)CC4)ccc13)C(=O)C1(O)C(=O)C(C(N)=O)=C(O)C(N(C)C)C1C2` [Compound 103, (4S,4aS,12aS)-4-(Dimethylamino)-3,10,11,12a-tetrahy-droxy-6-methyl-9-(((1-methylcyclopropyl)amino)methyl)-1,12-dioxo-1,4,4a,5,12,12a-hexahydrotetracene-2-carboxamide Hydrochloride], the minimal inhibitory concentration (MIC) in assay [1] (read-out: MIC, TetX7, −TC) was found to be 64 µg/mL; in assay [2] (read-out: MIC, Tet50, −TC), 64 µg/mL. The “MIC, Tet50, +TC” value in assay [2] turned out to be 16 µg/mL.
Take `Cc1c2c(c(O)c3c(O)cccc13)C(=O)[C@]1(O)C(=O)C(C(N)=O)=C(O)[C@@H](N(C)C)[C@@H]1C2` [Compound 106, Anhydrotetracycline, reference compound]: the IC50 on Tet50 (setting [4]) worked out at 70 ± 10 µM; at Tet50 (blue light, start of course, read-out: Apparent IC50 value at start of blue light course) it was 500 ± 60 µM; at Tet50 (dark, 240 min preincubation, read-out: Apparent IC50 value over 240 min preincubation), 340 ± 40 µM.
